Like-named read-outs stand apart in the source and are kept apart here.
Experiments:
[1] = biological target: human Gal-1 (hGal-1) (Homo sapiens, UniProt P09382); assay: Competitive binding assay: biotinylated hGal-1 to microplate-adsorbed asialofetuin (ASF)
Description: Evaluation of Compound Inhibitory Activity (IC50) The inhibitory activity of compounds is determined in competitive binding assays. […] Alternatively, and preferably, a human Gal-1 version in which all six cysteines are substituted by serines may be used. Briefly, compounds are serially diluted in DMSO (working dilutions). […] Plates are incubated for 3 hours at 4° C., then washed with cold assay buffer (3×50 uL), incubated for 1 hour with 25 μL/well of a streptavidin-peroxidase solution (diluted in assay buffer to 80 ng/mL) at 4° C., followed by further washing steps with assay buffer (3×50 uL). Finally, 25 µL/well of ABTS substrate is added. […] The calculated IC50 values may fluctuate depending on the daily assay performance. Fluctuations of this kind are known to those skilled in the art. IC50 values from several measurements are given as mean values.

[2] = biological target: human Gal-3 (hGal-3) (Homo sapiens (Human), UniProt P17931); assay: Competitive binding assay: biotinylated hGal-3 to microplate-adsorbed asialofetuin (ASF); conditions: Activity on hGal-3; binding to ASF-coated plates, 3 hours at 4° C.; mean values
human Gal-3 (hGal-3), sequence (P17931 whole entry): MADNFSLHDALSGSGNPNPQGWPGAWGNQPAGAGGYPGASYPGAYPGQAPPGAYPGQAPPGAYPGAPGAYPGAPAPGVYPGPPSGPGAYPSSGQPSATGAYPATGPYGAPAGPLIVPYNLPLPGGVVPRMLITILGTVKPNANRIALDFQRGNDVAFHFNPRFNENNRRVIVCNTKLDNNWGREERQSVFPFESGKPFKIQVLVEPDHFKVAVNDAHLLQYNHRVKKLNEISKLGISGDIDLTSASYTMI
Description: Evaluation of Compound Inhibitory Activity (IC50)
The inhibitory activity of compounds is determined in competitive binding assays. This spectrophotometric assay measures the binding of biotinylated human Gal-3 (hGal-3) or human Gal-1 (hGal-1), respectively, to a microplate-adsorbed glycoprotein, asialofetuin (ASF) (Proc Natl Acad Sci USA. 2013 Mar. 26; 110(13):5052-7.). Alternatively, and preferably, a human Gal-1 version in which all six cysteines are substituted by serines may be used.
Briefly, compounds are serially diluted in DMSO (working dilutions). ASF-coated 384 well plates are supplemented with 22.8 μL/well of biotinylated hGal-3 or hGal-1 in assay buffer (i.e. 300-1000 ng/mL biotinylated hGal-3 or hGal-1) to which 1.2 µL of compound working dilutions are added and mixed.
Plates are incubated for 3 hours at 4° C., then washed with cold assay buffer (3×50 uL), incubated for 1 hour with 25 μL/well of a streptavidin-peroxidase solution (diluted in assay buffer to 80 ng/mL) at 4° C., followed by further washing steps with assay buffer (3×50 uL). Finally, 25 µL/well of ABTS substrate is added.
The calculated IC50 values may fluctuate depending on the daily assay performance. Fluctuations of this kind are known to those skilled in the art. IC50 values from several measurements are given as mean values.

[3] = Activities on hGal-1; binding to ASF-coated plates, 3 hours at 4° C.; mean values; read-out: Gal-1 IC50

human Gal-1 (hGal-1), sequence (P09382 2-135 limits assumed): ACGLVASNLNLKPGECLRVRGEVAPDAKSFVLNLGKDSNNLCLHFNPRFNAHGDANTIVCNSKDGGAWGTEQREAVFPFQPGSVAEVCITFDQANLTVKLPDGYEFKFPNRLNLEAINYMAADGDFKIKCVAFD

IC50 [1, 3] [µM]	IC50 [2] [nM]	IC50 ([1]; read-out: Gal-1 IC50; Activities on hGal-1; binding to ASF-coated plates, 3 hours at 4° C.; mean values) [µM]	Compound
8.2	160	–	CO[C@@H]1[C@@H](n2cc(-c3ccc(C)c(F)c3F)nn2)[C@@H](O)[C@@H](CO)O[C@@H]1CC1=NOC2(CCCN(C(=O)OC(C)(C)C)CC2)C1 (mixture of isomers) [Example 1.75, tert-butyl (RS)-3-(((2R,3R,4S,5R,6R)-4-(4-(2,3-difluoro-4-methylphenyl)-1H-1,2,3-triazol-1-yl)-5-hydroxy-6-(hydroxymethyl)-3-methoxytetrahydro-2H-pyran-2-yl)methyl)-1-oxa-2,8-diazaspiro[4.6]undec-2-ene-8-carboxylate]
4.8	100	–	CO[C@@H]1[C@@H](n2cc(-c3ccc(C)c(F)c3F)nn2)[C@@H](O)[C@@H](CO)O[C@@H]1CC1=NOC2(CCC(=O)N(C)CC2)C1 (mixture of isomers) [Example 1.77, (RS)-3-(((2R,3R,4S,5R,6R)-4-(4-(2,3-difluoro-4-methylphenyl)-1H-1,2,3-triazol-1-yl)-5-hydroxy-6-(hydroxymethyl)-3-methoxytetrahydro-2H-pyran-2-yl)methyl)-8-methyl-1-oxa-2,8-diazaspiro[4.6]undec-2-en-9-one]
4.8	490	–	CO[C@@H]1[C@@H](n2cc(-c3ccc(Cl)c(F)c3F)nn2)[C@@H](O)[C@@H](CO)O[C@@H]1CC1=NOC2(CCN(C(=O)OC(C)(C)C)C2)C1 (mixture of isomers) [Example 1.79, tert-butyl (RS)-3-(((2R,3R,4S,5R,6R)-4-(4-(4-chloro-2,3-difluorophenyl)-1H-1,2,3-triazol-1-yl)-5-hydroxy-6-(hydroxymethyl)-3-methoxytetrahydro-2H-pyran-2-yl)methyl)-1-oxa-2,7-diazaspiro[4.4]non-2-ene-7-carboxylate]
2.7	110	–	CO[C@@H]1[C@@H](n2cc(-c3ccc(C)c(F)c3F)nn2)[C@@H](O)[C@@H](CO)O[C@@H]1CC1=NOC2(CCNC(=O)CC2)C1 (mixture of isomers) [Example 1.76]
4.2	61	–	CC(=O)O[C@@H]1[C@@H](n2cc(-c3ccc(C)c(F)c3F)nn2)[C@@H](O)[C@@H](CO)O[C@@H]1CC1=NOC2(CCOCC2)C1 [Example 1.01, (2R,3R,4S,5R,6R)-2-((1,8-dioxa-2-azaspiro[4.5]dec-2-en-3-yl)methyl)-4-(4-(2,3-difluoro-4-methylphenyl)-1H-1,2,3-triazol-1-yl)-5-hydroxy-6-(hydroxymethyl)tetrahydro-2H-pyran-3-yl acetate]
5.2	84	–	Cc1ccc(-c2cn([C@H]3[C@@H](O)[C@@H](CO)O[C@H](CC4=NOC5(CCOCC5)C4)[C@@H]3O)nn2)c(F)c1F [Example 1.02, (2R,3R,4R,5R,6R)-2-((1,8-dioxa-2-azaspiro[4.5]dec-2-en-3-yl)methyl)-4-(4-(2,3-difluoro-4-methylphenyl)-1H-1,2,3-triazol-1-yl)-6-(hydroxymethyl)tetrahydro-2H-pyran-3,5-diol]
> 100	79	–	CC(=O)O[C@@H]1[C@@H](n2cc(-c3ccc(C)c(F)c3F)nn2)[C@@H](O)[C@@H](CO)O[C@@H]1CC1=NOC2(CCC(F)(F)CC2)C1 [Example 1.03, (2R,3R,4S,5R,6R)-2-((8,8-difluoro-1-oxa-2-azaspiro[4.5]dec-2-en-3-yl)methyl)-4-(4-(2,3-difluoro-4-methylphenyl)-1H-1,2,3-triazol-1-yl)-5-hydroxy-6-(hydroxymethyl)tetrahydro-2H-pyran-3-yl acetate]
10.4	170	–	Cc1ccc(-c2cn([C@H]3[C@@H](O)[C@@H](CO)O[C@H](CC4=NOC5(CCC(F)(F)CC5)C4)[C@@H]3O)nn2)c(F)c1F [Example 1.04, (2R,3R,4R,5R,6R)-2-((8,8-difluoro-1-oxa-2-azaspiro[4.5]dec-2-en-3-yl)methyl)-4-(4-(2,3-difluoro-4-methylphenyl)-1H-1,2,3-triazol-1-yl)-6-(hydroxymethyl)tetrahydro-2H-pyran-3,5-diol]
–	280	2.2	OC[C@H]1O[C@H](CC2=NOC3(CCCCC3)C2)[C@H](O)[C@@H](n2cc(-c3cc(F)c(F)c(F)c3)nn2)[C@H]1O [Example 1.05, (2R,3R,4R,5R,6R)-2-((1-oxa-2-azaspiro[4.5]dec-2-en-3-yl)methyl)-6-(hydroxymethyl)-4-(4-(3,4,5-trifluorophenyl)-1H-1,2,3-triazol-1-yl)tetrahydro-2H-pyran-3,5-diol]
4.2	340	–	CO[C@@H]1[C@@H](n2cc(-c3cc(F)c(F)c(F)c3)nn2)[C@@H](O)[C@@H](CO)O[C@@H]1CC1=NOC2(CCN(C(=O)OC(C)(C)C)CC2)C1 [Example 1.06, tert-butyl 3-(((2R,3R,4S,5R,6R)-5-hydroxy-6-(hydroxymethyl)-3-methoxy-4-(4-(3,4,5-trifluorophenyl)-1H-1,2,3-triazol-1-yl)tetrahydro-2H-pyran-2-yl)methyl)-1-oxa-2,8-diazaspiro[4.5]dec-2-ene-8-carboxylate]
5.7	320	–	CO[C@@H]1[C@@H](n2cc(-c3cc(F)c(F)c(F)c3)nn2)[C@@H](O)[C@@H](CO)O[C@@H]1CC1=NOC2(CCNCC2)C1 [Example 1.07, (2R,3R,4S,5R,6R)-6-((1-oxa-2,8-diazaspiro[4.5]dec-2-en-3-yl)methyl)-2-(hydroxymethyl)-5-methoxy-4-(4-(3,4,5-trifluorophenyl)-1H-1,2,3-triazol-1-yl)tetrahydro-2H-pyran-3-ol]
1.9	240	–	CO[C@@H]1[C@@H](n2cc(-c3cc(F)c(F)c(F)c3)nn2)[C@@H](O)[C@@H](CO)O[C@@H]1CC1=NOC2(CCCCC2)C1 [Example 1.08, (2R,3R,4S,5R,6R)-6-((1-oxa-2-azaspiro[4.5]dec-2-en-3-yl)methyl)-2-(hydroxymethyl)-5-methoxy-4-(4-(3,4,5-trifluorophenyl)-1H-1,2,3-triazol-1-yl)tetrahydro-2H-pyran-3-ol]
2.7	950	–	CO[C@@H]1[C@@H](n2cc(-c3cc(F)c(F)c(F)c3)nn2)[C@@H](O)[C@@H](CO)O[C@@H]1CC1=NOC2(CCCC2)C1 [Example 1.09, (2R,3R,4S,5R,6R)-6-((1-oxa-2-azaspiro[4.4]non-2-en-3-yl)methyl)-2-(hydroxymethyl)-5-methoxy-4-(4-(3,4,5-trifluorophenyl)-1H-1,2,3-triazol-1-yl)tetrahydro-2H-pyran-3-ol]
3.1	–	–	CO[C@@H]1[C@@H](n2cc(-c3cc(F)c(F)c(F)c3)nn2)[C@@H](O)[C@@H](CO)O[C@@H]1CC1=NOC2(CCC(C)CC2)C1 (stereo partly drawn) [Example 1.30, (2R,3R,4S,5R,6R)-2-(hydroxymethyl)-5-methoxy-6-((8-methyl-1-oxa-2-azaspiro[4.5]dec-2-en-3-yl)methyl)-4-(4-(3,4,5-trifluorophenyl)-1H-1,2,3-triazol-1-yl)tetrahydro-2H-pyran-3-ol]
2.9	–	–	OC[C@H]1O[C@H](CC2=NOC3(CCCCC3)C2)[C@H](OCC(F)F)[C@@H](n2cc(-c3cc(F)c(F)c(F)c3)nn2)[C@H]1O [Example 1.67, (2R,3R,4S,5R,6R)-6-((1-oxa-2-azaspiro[4.5]dec-2-en-3-yl)methyl)-5-(2,2-difluoroethoxy)-2-(hydroxymethyl)-4-(4-(3,4,5-trifluorophenyl)-1H-1,2,3-triazol-1-yl)tetrahydro-2H-pyran-3-ol]
1.3	–	–	CO[C@@H]1[C@@H](n2cc(-c3ccc(C)c(F)c3F)nn2)[C@@H](O)[C@@H](CO)O[C@@H]1CN1CC2(CCCCC2)NC1=O [Example 4.01, 3-(((2R,3R,4S,5R,6R)-4-(4-(2,3-difluoro-4-methylphenyl)-1H-1,2,3-triazol-1-yl)-5-hydroxy-6-(hydroxymethyl)-3-methoxytetrahydro-2H-pyran-2-yl)methyl)-1,3-diazaspiro[4.5]decan-2-one]

Compound	IC50 [1, 3] [µM]	IC50 [2] [nM]	IC50 ([1]; read-out: Gal-1 IC50; Activities on hGal-1; binding to ASF-coated plates, 3 hours at 4° C.; mean values) [µM]
CO[C@@H]1[C@@H](n2cc(-c3ccc(Cl)c(F)c3F)nn2)[C@@H](O)[C@@H](CO)O[C@@H]1CC1=NOC2(C1)C[C@@H](C(=O)O)N(C(=O)OC(C)(C)C)C2 (mixture of isomers) [Example 1.78, (5RS,8S)-7-(tert-butoxycarbonyl)-3-(((2R,3R,4S,5R,6R)-4-(4-(4-chloro-2,3-difluorophenyl)-1H-1,2,3-triazol-1-yl)-5-hydroxy-6-(hydroxymethyl)-3-methoxytetrahydro-2H-pyran-2-yl)methyl)-1-oxa-2,7-diazaspiro[4.4]non-2-ene-8-carboxylic acid]	12	270	–
